Test results as given in patent publication US8609414B2, “Isolation and growth of stem cells from hemangiomas” (priority 2007, dated 2013).

Test system: hemangioma tumor spheres
Settings: DMEM/F12 + 50 μg/ml VEGF + NEAA
Procedure: Another key property of stem cells is their ability to differentiate into mature cells. To assess whether hemangioma tumor sphere cells are able to differentiate into mature cells, tumor cells were cultured in appropriate growth factors.

Substance: VEGF
- differentiation of hemangioma tumor sphere cells into mature cells (72 hours): differentiated into the endothelial-like tissue
- time to changes in cell morphology (phase-contrast microscopy): ≤ 24 hours
